Earlier results in US20180338945A1, “SKIN ADHESIVES, ANTIMICROBIAL COMPOSITIONS, ARTICLES, AND METHODS FOR THE USE THEREOF” (DERMALINK TECHNOLOGIES, INC., priority 2015, published 2018).

How the values were obtained:
E. coli = details: pure LAE
A. brasiliensis = details: pure LAE

SMILES: CCCCCCCCCCCC(=O)N[C@@H](CCCNC(=N)N)C(=O)OCC [LAE, N^α-lauroyl-arginine ethyl ester]
- minimum inhibitory concentration (MIC) (E. coli): 16 micrograms per mL
- minimum inhibitory concentration (MIC) (A. brasiliensis): 32 micrograms per mL
